Assay results published in PubChem BioAssay (NCI).
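Here, GI50 denotes the concentration required for 50% inhibition of growth. TGI: concentration producing complete growth inhibition.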

How the values were obtained:
Assay in all cases: NCI-60 cell line screen, 384-well format
MDA-MB-435 melanoma = test system: MDA-MB-435 melanoma
MCF7 breast = test system: MCF7 breast
SF-295 CNS = test system: SF-295 CNS
NCI-H226 lung = test system: NCI-H226 lung
M14 melanoma = test system: M14 melanoma
SNB-19 CNS = test system: SNB-19 CNS
UACC-257 melanoma = test system: UACC-257 melanoma
PC-3 prostate = test system: PC-3 prostate
CAKI-1 renal = test system: CAKI-1 renal
EKVX NSCLC = test system: EKVX NSCLC
U251 glioblastoma = test system: U251 glioblastoma
MALME-3M melanoma = test system: MALME-3M melanoma
A549 NSCLC = test system: A549 NSCLC
COLO 205 colon = test system: COLO 205 colon
CCRF-CEM leukemia = test system: CCRF-CEM leukemia
SK-OV-3 ovarian = test system: SK-OV-3 ovarian
HOP-62 NSCLC = test system: HOP-62 NSCLC
786-0 renal = test system: 786-0 renal
NCI-H522 lung = test system: NCI-H522 lung
MDA-MB-231 breast = test system: MDA-MB-231 breast
T-47D breast = test system: T-47D breast
SNB-75 CNS = test system: SNB-75 CNS
DU-145 prostate = test system: DU-145 prostate
HCT-15 colon = test system: HCT-15 colon
BT-549 breast = test system: BT-549 breast
HS 578T breast = test system: HS 578T breast
OVCAR-4 ovarian = test system: OVCAR-4 ovarian
HCC-2998 colon = test system: HCC-2998 colon
HCT-116 colon = test system: HCT-116 colon
MOLT-4 leukemia = test system: MOLT-4 leukemia
K-562 leukemia = test system: K-562 leukemia
LOX IMVI melanoma = test system: LOX IMVI melanoma
RPMI-8226 leukemia = test system: RPMI-8226 leukemia
MDA-MB-468 breast = test system: MDA-MB-468 breast
SF-539 CNS = test system: SF-539 CNS
NCI-H460 NSCLC = test system: NCI-H460 NSCLC
SF-268 CNS = test system: SF-268 CNS
OVCAR-3 ovarian = test system: OVCAR-3 ovarian
UACC-62 melanoma = test system: UACC-62 melanoma
ACHN renal = test system: ACHN renal
TK-10 renal = test system: TK-10 renal
SR leukemia = test system: SR leukemia
KM12 colon = test system: KM12 colon
NCI-H23 lung = test system: NCI-H23 lung
OVCAR-5 ovarian = test system: OVCAR-5 ovarian
A498 renal = test system: A498 renal
NCI/ADR-RES ovarian = test system: NCI/ADR-RES ovarian
SK-MEL-2 melanoma = test system: SK-MEL-2 melanoma
SW-620 colon = test system: SW-620 colon
NCI-H322M lung = test system: NCI-H322M lung
HOP-92 NSCLC = test system: HOP-92 NSCLC
HL-60(TB) leukemia = test system: HL-60(TB) leukemia
HT29 colon = test system: HT29 colon
RXF 393 renal = test system: RXF 393 renal
SK-MEL-28 melanoma = test system: SK-MEL-28 melanoma
SK-MEL-5 melanoma = test system: SK-MEL-5 melanoma
UO-31 renal = test system: UO-31 renal
IGROV1 ovarian = test system: IGROV1 ovarian
SN12C renal = test system: SN12C renal

Cc1ccc(/C=N/NC(=O)c2ccccc2Oc2ccccc2)o1
GI50 (MDA-MB-435 melanoma): 18.8 µM | TGI (MDA-MB-435 melanoma): 32.9 µM | GI50 (MCF7 breast): 4.85 µM | TGI (MCF7 breast): 17.1 µM | GI50 (SF-295 CNS): 4.52 µM | TGI (SF-295 CNS): 16.4 µM | GI50 (NCI-H226 lung): 6.68 µM | TGI (NCI-H226 lung): 19.2 µM | GI50 (M14 melanoma): 5.39 µM | TGI (M14 melanoma): 18 µM | GI50 (SNB-19 CNS): 12.1 µM | TGI (SNB-19 CNS): 25 µM | GI50 (UACC-257 melanoma): 17.3 µM | TGI (UACC-257 melanoma): 31.2 µM | GI50 (PC-3 prostate): 17.6 µM | TGI (PC-3 prostate): 32 µM | GI50 (CAKI-1 renal): 17.6 µM | TGI (CAKI-1 renal): 31.6 µM | GI50 (EKVX NSCLC): 18.1 µM | TGI (EKVX NSCLC): 32.5 µM | GI50 (U251 glioblastoma): 18 µM | TGI (U251 glioblastoma): 32 µM | GI50 (MALME-3M melanoma): 18.6 µM | TGI (MALME-3M melanoma): 32.7 µM | GI50 (A549 NSCLC): 17.9 µM | TGI (A549 NSCLC): 31.9 µM | GI50 (COLO 205 colon): 5.62 µM | TGI (COLO 205 colon): 17.3 µM | GI50 (CCRF-CEM leukemia): 2 µM | TGI (CCRF-CEM leukemia): 4.13 µM | GI50 (SK-OV-3 ovarian): 16.8 µM | TGI (SK-OV-3 ovarian): 31.2 µM | GI50 (HOP-62 NSCLC): 6.21 µM | TGI (HOP-62 NSCLC): 19 µM | GI50 ([…]-0 renal): 8.44 µM | TGI (786-0 renal): 20.8 µM | GI50 (NCI-H522 lung): 16.2 µM | TGI (NCI-H522 lung): 29.7 µM | GI50 (MDA-MB-231 breast): 18.3 µM | TGI (MDA-MB-231 breast): 34 µM | GI50 (T-47D breast): 16.2 µM | TGI (T-47D breast): 29.8 µM | GI50 (SNB-75 CNS): 17.1 µM | TGI (SNB-75 CNS): 31.1 µM | GI50 (DU-145 prostate): 6.77 µM | TGI (DU-145 prostate): 19.9 µM | GI50 (HCT-15 colon): 17.3 µM | TGI (HCT-15 colon): 31.6 µM | GI50 (BT-549 breast): 19.5 µM | TGI (BT-549 breast): 33.7 µM | GI50 (HS 578T breast): 16.6 µM | TGI (HS 578T breast): 30.3 µM | GI50 (OVCAR-4 ovarian): 10.7 µM | TGI (OVCAR-4 ovarian): 24.4 µM | GI50 (HCC-2998 colon): 17.8 µM | TGI (HCC-2998 colon): 31.7 µM | GI50 (HCT-116 colon): 17.7 µM | TGI (HCT-116 colon): 31.6 µM | GI50 (MOLT-4 leukemia): 1.75 µM | TGI (MOLT-4 leukemia): 3.2 µM | GI50 (K-562 leukemia): 3.71 µM | TGI (K-562 leukemia): 13.5 µM | GI50 (LOX IMVI melanoma): 19.5 µM | TGI (LOX IMVI melanoma): 33.7 µM | GI50 (RPMI-8226 leukemia): 18.6 µM | TGI (RPMI-8226 leukemia): 32.7 µM | GI50 (MDA-MB-468 breast): 1.88 µM | TGI (MDA-MB-468 breast): 3.84 µM | GI50 (SF-539 CNS): 18.1 µM | TGI (SF-539 CNS): 32 µM | GI50 (NCI-H460 NSCLC): 16.6 µM | TGI (NCI-H460 NSCLC): 30.5 µM | GI50 (SF-268 CNS): 18.9 µM | TGI (SF-268 CNS): 33.3 µM | GI50 (OVCAR-3 ovarian): 16.3 µM | TGI (OVCAR-3 ovarian): 30.4 µM | GI50 (UACC-62 melanoma): 4.66 µM | TGI (UACC-62 melanoma): 16.5 µM | GI50 (ACHN renal): 3.35 µM | TGI (ACHN renal): 12.2 µM | GI50 (TK-10 renal): 4.22 µM | TGI (TK-10 renal): 16.7 µM | GI50 (SR leukemia): 1.73 µM | TGI (SR leukemia): 3.24 µM | GI50 (KM12 colon): 0.829 µM | TGI (KM12 colon): 19.5 µM | GI50 (NCI-H23 lung): 4.32 µM | TGI (NCI-H23 lung): 16.1 µM | GI50 (OVCAR-5 ovarian): 6.64 µM | TGI (OVCAR-5 ovarian): 20 µM | GI50 (A498 renal): 17.3 µM | TGI (A498 renal): 31.2 µM | GI50 (NCI/ADR-RES ovarian): 17.5 µM | TGI (NCI/ADR-RES ovarian): 31.7 µM | GI50 (SK-MEL-2 melanoma): 3.99 µM | TGI (SK-MEL-2 melanoma): 7.04 µM | GI50 (SW-620 colon): 19.2 µM | TGI (SW-620 colon): 33.4 µM | GI50 (NCI-H322M lung): 19.1 µM | TGI (NCI-H322M lung): 34.5 µM | GI50 (HOP-92 NSCLC): 4.72 µM | TGI (HOP-92 NSCLC): 16.4 µM | GI50 (HL-60(TB) leukemia): 19.4 µM | TGI (HL-60(TB) leukemia): 33.6 µM | GI50 (HT29 colon): 17.9 µM | TGI (HT29 colon): 32 µM | GI50 (RXF 393 renal): 16.9 µM | TGI (RXF 393 renal): 30.6 µM | GI50 (SK-MEL-28 melanoma): 18.6 µM | TGI (SK-MEL-28 melanoma): 32.6 µM | GI50 (SK-MEL-5 melanoma): 17.1 µM | TGI (SK-MEL-5 melanoma): 30.9 µM | GI50 (UO-31 renal): 3.78 µM | TGI (UO-31 renal): 13.1 µM | GI50 (IGROV1 ovarian): 2.49 µM | TGI (IGROV1 ovarian): 10.7 µM | GI50 (SN12C renal): 4.87 µM | TGI (SN12C renal): 17 µM
